Key:
Assay type in all cases: in vivo
[1] = system: Spodoptera litura; assay: Spodoptera litura diet incorporation method; conditions: third instar larvae, 96 h after release, dead and moribund combined, compared to untreated control, read-out: Percent mortality
Protocol: Diet incorporation method was used, in which the required quantity of test compounds were weighed and dissolved in surfactant solution, kept on vortex for 90 min for proper mixing, then diluted with water to the desired test concentrations. The solutions were incorporated into semi-synthetic diet when the temperature reached approximately 50° C. in the bioassay containers. The diet and solution was stirred thoroughly for properly mixing and was left to cool for 30 min. The solidified diet was cut into equal pieces, and then each piece was transferred into one cell of the bio-assay trays. A single starved third instar larva was released into each of these cells of the bioassay trays and the tray was covered with a lid. The bio-assay trays were kept under laboratory conditions at a temperature of 25° C. and relative humidity of 70%. Observations on dead, moribund and alive larvae were recorded at 96 h after the release of the larvae. Percent mortality was calculated by combining dead and moribund larvae and comparing the result to the one of the untreated control.

[2] = system: Plutella xylostella; assay: Plutella xylostella leaf dip method (cabbage leaves); conditions: foliar, second instar larvae, 72 h after release, dead and moribund combined, compared to untreated control, read-out: Percent mortality
[3] = system: Nilaparvata lugens; assay: Nilaparvata lugens seedling dip method (paddy seedlings); conditions: third instar nymphs, 72 h after release, dead and moribund combined, compared to untreated control, read-out: Percent mortality
Protocol: Seedling dip method was used for screening, wherein the required quantity of the test compounds were weighed and dissolved in surfactant solution, kept on a Vortex at 2000 rpm with zirconia beads for 90 min for proper mixing, then diluted with 0.01% Triton-X solution to the desired test concentration. Paddy seedlings were dipped in the solution for 10 seconds, shade dried for 20 min and then transferred into glass tubes with the roots kept in water. Known numbers of third instar nymphs were released into the test tubes and the tubes were kept in the plant growth chamber at a temperature of 25° C. and relative humidity of 75%. Observations on dead, moribund and living nymphs were recorded at 72 h after the release. Percent mortality was calculated by combining dead and moribund nymphs and comparing the result to the one of the untreated control.

Measured: mortality at 300 ppm

CCS(=O)(=O)c1nn2cc(-c3ccc(Cl)cc3)cnc2c1-c1nc2cc(C(F)(F)F)cnc2n1C [Compound 63, 2-(6-(4-Chlorophenyl)-2-(ethylsulfonyl)pyrazolo[1,5-a]pyrimidin-3-yl)-3-methyl-6-(trifluoromethyl)-3H-imidazo[4,5-b]pyridine]
> 70%: all assays above

Reference: patent US12384787B2, “Fused heterocyclic compounds and their use as pest control agents” (PI INDUSTRIES LTD., priority 2019, dated 2025)
